19 compounds from patent publication US11542259B2, “Compounds for the treatment of kinase-dependent disorders” (Exelixis, Inc., priority 2018, dated 2023) can be followed below.

Experiment [1] has as its target KDR (Homo sapiens (Human), UniProt P35968). Description: KDR autophosphorylation ELISA in HUVEC cells. As to conditions: cellular, VEGF165 stimulated. It is filed as cell-based. In a few lines:
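Phospho-KDR levels in lysates were measured by ELISA and referenced to stimulated-vehicle (100%) and unstimulated (0%) wells, IC50 from 4-parameter logistic fit. HUVEC, starved 24 h in serum-free medium, received an 8-point compound series (0.3% DMSO) for 1 h before a 5 min 100 ng/mL VEGF165 challenge.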

The target of experiment [2] is Human Met (residues R974-S1390 with A1209G and V1290L) (Homo sapiens, UniProt P08581). Description: Human Met kinase assay (33P radiometric, KinaseProfiler). As to conditions: 10 μM ATP, read-out: c-Met IC50. It is filed as biochemical. As to the method: Kinase activity and compound inhibition were investigated using the ^33P-Phosphoryl transfer radiometric kinase assay, performed using the KinaseProfiler™ service of Eurofins Pharma Discovery Services UK Limited. Dose-response experiments were performed using nine compound concentrations in a 96-well microtiter plate. For each assay, all compounds were prepared to a 50× final assay concentration (50 μM) in 100% DMSO, then diluted in a half-log series, with the final top concentration at 1 μM. This working stock of the compound was added to the assay well as the first component in the reaction, followed by the remaining components as detailed in the following assay protocols below. The positive control wells (100% kinase activity) contain all components of the reaction including 2% DMSO (control for solvent effects), except the compound of interest. Blank wells contain all components of the reaction, with the reference inhibitor, staurosporine. This reference compound was used to abolish kinase activity and generated the 0% kinase activity base-line. IC50 values were calculated by nonlinear regression analysis using the sigmoidal dose-response (variable slope) curve fit on XLFit version 5.3 (ID Business Solutions).
Human Met (residues R974-S1390 with A1209G and V1290L, 3.4 nM) was incubated with 8 mM MOPS pH 7.0, 0.2 mM EDTA, 250 μM KKKGQEEEYVFIE (SEO ID NO. 45), 1 mM sodium orthovanadate, 5 mM […], 10 mM magnesium acetate, and 10 μM [γ-33P-ATP]. The reaction was initiated by the addition of the Mg/ATP mix. After incubation for 40 minutes at room temperature, the reaction was stopped by the addition of phosphoric acid to a concentration of 0.5%. A reaction aliquot of […] was then spotted onto a P30 filtermat and washed four times for 4 minutes in 0.425% phosphoric acid and once in methanol prior to drying and scintillation counting. Incorporated 33P was measured using the Wallac Microbeta scintillation counter (Perkin Elmer).

As usually defined, the IC50 is the point on the concentration scale where inhibition reaches its midpoint.

Chain of KDR (P35968 20-1356): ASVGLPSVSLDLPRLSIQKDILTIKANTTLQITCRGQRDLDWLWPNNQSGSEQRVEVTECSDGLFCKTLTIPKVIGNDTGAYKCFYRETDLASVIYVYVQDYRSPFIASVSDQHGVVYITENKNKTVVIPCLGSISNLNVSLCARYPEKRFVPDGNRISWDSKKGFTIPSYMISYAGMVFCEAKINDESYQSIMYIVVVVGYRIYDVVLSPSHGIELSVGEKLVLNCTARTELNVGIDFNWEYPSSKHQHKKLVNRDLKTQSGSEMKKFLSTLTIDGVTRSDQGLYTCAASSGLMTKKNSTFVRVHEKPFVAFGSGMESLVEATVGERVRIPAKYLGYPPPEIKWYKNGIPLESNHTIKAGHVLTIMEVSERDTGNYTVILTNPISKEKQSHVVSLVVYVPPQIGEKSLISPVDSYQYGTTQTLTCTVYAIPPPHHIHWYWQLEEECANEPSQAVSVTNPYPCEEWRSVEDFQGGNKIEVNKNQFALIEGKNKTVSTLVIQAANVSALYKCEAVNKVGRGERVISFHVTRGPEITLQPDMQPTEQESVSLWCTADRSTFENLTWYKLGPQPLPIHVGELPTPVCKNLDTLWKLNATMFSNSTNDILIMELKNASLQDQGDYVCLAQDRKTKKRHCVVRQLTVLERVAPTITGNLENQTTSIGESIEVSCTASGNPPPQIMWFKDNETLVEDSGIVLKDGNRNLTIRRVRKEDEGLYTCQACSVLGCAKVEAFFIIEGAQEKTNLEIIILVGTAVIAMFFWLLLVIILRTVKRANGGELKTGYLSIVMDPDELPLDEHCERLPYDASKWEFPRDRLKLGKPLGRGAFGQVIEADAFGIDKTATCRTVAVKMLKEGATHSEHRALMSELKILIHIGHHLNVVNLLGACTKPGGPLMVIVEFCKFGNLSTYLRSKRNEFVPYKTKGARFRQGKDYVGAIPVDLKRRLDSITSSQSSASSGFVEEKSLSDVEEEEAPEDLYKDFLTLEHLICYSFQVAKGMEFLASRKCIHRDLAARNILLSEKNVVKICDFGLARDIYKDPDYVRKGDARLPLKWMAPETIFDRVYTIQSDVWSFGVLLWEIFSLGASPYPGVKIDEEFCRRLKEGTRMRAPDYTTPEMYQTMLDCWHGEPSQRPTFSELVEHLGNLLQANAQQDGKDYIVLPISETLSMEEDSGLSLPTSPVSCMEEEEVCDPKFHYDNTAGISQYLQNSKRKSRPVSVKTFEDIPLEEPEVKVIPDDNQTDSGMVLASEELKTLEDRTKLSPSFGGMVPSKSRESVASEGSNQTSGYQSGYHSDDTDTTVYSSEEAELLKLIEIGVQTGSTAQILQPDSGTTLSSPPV

With `COc1cc2nccc(Oc3ccc(NC(=O)C4(C(=O)Nc5ccc(F)cc5)CC4)cc3)c2cc1-c1cccnc1` [Compound 201, 1-N′-(4-Fluorophenyl)-1-N-[4-(7-methoxy-6-pyridin-3-ylquinolin-4-yl)oxyphenyl]cyclopropane-1,1-dicarboxamide], the 50% inhibitory concentration (IC50) in experiment [1] is 10 to 100 nM; in experiment [2], at most 10 nM.
On the same counts, the results for `NC(=O)c1cc2c(Oc3ccc(NC(=O)C4(C(=O)Nc5ccc(F)cc5)CC4)cc3)ccnc2cc1F` [Compound 67, 1-N-[4-(6-carbamoyl-7-fluoroquinolin-4-yl)oxyphenyl]-1-N′-(4-fluorophenyl)cyclopropane-1,1-dicarboxamide] are 100 to 300 nM and 10 to 100 nM.
On the same counts, the results for `COc1cc2nccc(Oc3ccc(NC(=O)C4(C(=O)Nc5ccc(F)cc5)CC4)cc3)c2cc1-c1ccccn1` [Compound 176, 1-N′-(4-fluorophenyl)-1-N-[4-(7-methoxy-6-pyridin-2-ylquinolin-4-yl)oxyphenyl]cyclopropane-1,1-dicarboxamide] are 10 to 100 nM and 10 to 100 nM.
For `COc1cc2nccc(Oc3ccc(NC(=O)C4(C(=O)Nc5ccc(F)cc5)CC4)cc3)c2cc1C(=O)N1CC(O)C1` [Compound 16, 1-N′-(4-fluorophenyl)-1-N-[4-[6-(3-hydroxyazetidine-1-carbonyl)-7-methoxyquinolin-4-yl]oxyphenyl]cyclopropane-1,1-dicarboxamide], in that order: 100 to 300 nM and at most 10 nM.
As for `COc1cc2nccc(Oc3ccc(NC(=O)C4(C(=O)Nc5ccc(F)cc5)CC4)cc3)c2cc1C(=O)NC1CN(C)C1` [Compound 14, 1-N′-(4-fluorophenyl)-1-N-[4-[7-methoxy-6-[(1-methylazetidin-3-yl)carbamoyl]quinolin-4-yl]oxyphenyl]cyclopropane-1,1-dicarboxamide], the IC50 in experiment [1] is 10 to 100 nM; in experiment [2] it was at most 10 nM.
On the same counts, the results for `COc1cc2nccc(Oc3ccc(NC(=O)C4(C(=O)Nc5ccc(F)cc5)CC4)cc3)c2cc1-c1ccc(C)o1` [Compound 180, 1-N′-(4-fluorophenyl)-1-N-[4-[7-methoxy-6-(5-methylfuran-2-yl)quinolin-4-yl]oxyphenyl]cyclopropane-1,1-dicarboxamide] are 10 to 100 nM and 10 to 100 nM.
For `COc1cc2nccc(Oc3ccc(NC(=O)C4(C(=O)Nc5ccc(F)cc5)CC4)cc3Cl)c2cc1C(=O)O` [Compound 130, 4-[2-chloro-4-[[1-[(4-fluorophenyl)carbamoyl]cyclopropanecarbonyl]amino]phenoxy]-7-methoxyquinoline-6-carboxylic acid], in that order: above 300 nM and 10 to 100 nM.
Consider `COCCOc1cc2nccc(Oc3ccc(NC(=O)C4(C(=O)Nc5ccc(F)cc5)CC4)cc3)c2cc1C(N)=O` [Compound 103, 1-N-[4-[6-carbamoyl-7-(2-methoxyethoxy)quinolin-4-yl]oxyphenyl]-1-N′-(4-fluorophenyl)cyclopropane-1,1-dicarboxamide], for which the IC50 in experiment [1] and in experiment [2] was at most 10 nM each time.
`CNC(=O)c1cc2nccc(Oc3ccc(NC(=O)C4(C(=O)Nc5ccc(F)cc5)CC4)cc3)c2cc1C` [Compound 143, 1-N′-(4-fluorophenyl)-1-N-[4-[6-methyl-7-(methylcarbamoyl)quinolin-4-yl]oxyphenyl]cyclopropane-1,1-dicarboxamide]: the values for the IC50 in experiment [1] and in experiment [2] were 100 to 300 nM and at most 10 nM, respectively.
For `COc1cc2nccc(Oc3ccc(NC(=O)C4(C(=O)Nc5ccc(F)cc5)CC4)cc3)c2cc1S(C)(=O)=O` [Compound 210, 1-N′-(4-Fluorophenyl)-1-N-[4-(7-methoxy-6-methylsulfonylquinolin-4-yl)oxyphenyl]cyclopropane-1,1-dicarboxamide], in that order: at most 10 nM and at most 10 nM.
On the same counts, the results for `COc1cc2nccc(Oc3ccc(NC(=O)C4(C(=O)Nc5ccc(F)cc5)CC4)cc3)c2cc1C1(O)CNC1` [Compound 197, 1-N′-(4-fluorophenyl)-1-N-[4-[6-(3-hydroxyazetidin-3-yl)-7-methoxyquinolin-4-yl]oxyphenyl]cyclopropane-1,1-dicarboxamide] are above 300 nM and at most 10 nM.
For `COc1cc2nccc(Oc3ccc(NC(=O)C4(C(=O)Nc5ccc(F)cc5)CC4)cc3F)c2cc1C(=O)O` [Compound 131, 4-[2-fluoro-4-[[1-[(4-fluorophenyl)carbamoyl]cyclopropanecarbonyl]amino]phenoxy]-7-methoxyquinoline-6-carboxylic acid], in that order: above 300 nM and at most 10 nM.
In the case of `COc1cc2nccc(Oc3ccc(NC(=O)C4(C(=O)Nc5ccc(F)cc5)CC4)cc3)c2cc1C#N` [Compound 37, 1-N-[4-(6-cyano-7-methoxyquinolin-4-yl)oxyphenyl]-1-N′-(4-fluorophenyl)cyclopropane-1,1-dicarboxamide], the IC50 in experiment [1] and in experiment [2] was 10 to 100 nM in each case.
As for `COc1cc2nccc(Oc3ccc(NC(=O)C4(C(=O)Nc5ccc(F)cc5)CC4)cc3)c2cc1N1CC(O)C1` [Compound 199, 1-N′-(4-fluorophenyl)-1-N-[4-[6-(3-hydroxyazetidin-1-yl)-7-methoxyquinolin-4-yl]oxyphenyl]cyclopropane-1,1-dicarboxamide], the IC50 in experiment [1] and in experiment [2] was at most 10 nM throughout.
As for `COc1cc2c(Oc3ccc(NC(=O)C4(C(=O)Nc5ccc(F)cc5)CC4)cc3)ccnc2cc1C(N)=O` [Compound 152, 1-N-[4-(7-carbamoyl-6-methoxyquinolin-4-yl)oxyphenyl]-1-N′-(4-fluorophenyl)cyclopropane-1,1-dicarboxamide], the values for the 50% inhibitory concentration (IC50) in experiment [1] and in experiment [2] were 100 to 300 nM and at most 10 nM, respectively.
For `COc1cc2nccc(Oc3ccc(NC(=O)C4(C(=O)Nc5ccc(F)cc5)CC4)cc3)c2cc1N1CCC1` [Compound 198, 1-N-[4-[6-(azetidin-1-yl)-7-methoxyquinolin-4-yl]oxyphenyl]-1-N′-(4-fluorophenyl)cyclopropane-1,1-dicarboxamide], in that order: 10 to 100 nM and 10 to 100 nM.
As for `COC(=O)c1cc2c(Oc3ccc(NC(=O)C4(C(=O)Nc5ccc(F)cc5)CC4)cc3Cl)ccnc2cc1OC` [Compound 128, methyl 4-[2-chloro-4-[[1-[(4-fluorophenyl)carbamoyl]cyclopropanecarbonyl]amino]phenoxy]-7-methoxyquinoline-6-carboxylate], the IC50 in experiment [1] and in experiment [2] was at most 10 nM each time.
For the compound `COC(=O)c1cc2c(Oc3ccc(NC(=O)C4(C(=O)Nc5ccc(F)cc5)CC4)cc3)ccnc2cc1OC` [Compound 5, methyl 4-[4-[[1-[(4-fluorophenyl)carbamoyl]-cyclopropanecarbonyl]amino]-phenoxy]-7-methoxyquinoline-6-carboxylate], the IC50 in experiment [1] and in experiment [2] was at most 10 nM each time.
In the case of `COc1cc2nccc(Oc3ccc(NC(=O)C4(C(=O)Nc5ccc(F)cc5)CC4)cc3)c2cc1N1CC(F)(F)C1` [Compound 200, 1-N-[4-[6-(3,3-difluoroazetidin-1-yl)-7-methoxyquinolin-4-yl]oxyphenyl]-1-N′-(4-fluorophenyl)cyclopropane-1,1-dicarboxamide], the IC50 in experiment [1] and in experiment [2] was 10 to 100 nM each time.
